Counter-ions that a name gives are not always drawn. Like-named read-outs stand apart in the source and are kept apart here.
Legend:
Format in all cases: cell-based
S. aureus Smith = assay: In vitro MIC, Broth Dilution Method, S. aureus Smith; details: Staphylococcus aureus
K. pneumoniae A = assay: In vitro MIC, Broth Dilution Method, K. pneumoniae A; details: Klebsiella pneumoniae
E. coli 48 = assay: In vitro MIC, Broth Dilution Method, E. coli 48; details: Escherichia coli
E. cloacae 9570A = assay: In vitro MIC, Broth Dilution Method, E. cloacae 9570A; details: Enterobacter cloacae
Text: (§1) The in vitro activity of the compounds of the present invention as measured by the Minimum Inhibitory Concentration in micrograms/ml utilizing the Agar Well Diffusion Method or Broth Dilution Method against a variety of Gram-positive and Gram-negative organisms is as follows:
(§2) In vitro MIC (μg/ml) Broth Dilution Method

E. cloacae 7099 = assay: In vitro MIC, Broth Dilution Method, E. cloacae 7099; details: Enterobacter cloacae
P. aeruginosa Stone 130 = assay: In vitro MIC, Broth Dilution Method, P. aeruginosa Stone 130; details: Pseudomonas aeruginosa, STONE130
Text: as §1, §2

S. marcescens SM = assay: In vitro MIC, Broth Dilution Method, S. marcescens SM; details: Serratia marcescens
Text: as §1, §2

E. cloacae 214 = assay: In vitro MIC, Broth Dilution Method, E. cloacae 214; details: Enterobacter cloacae
Text: as §1, §2

P. aeruginosa 503-56 = assay: In vitro MIC, Broth Dilution Method, P. aeruginosa 503-56; details: Pseudomonas aeruginosa, 50356
Text: as §1, §2

P. mirabilis 190 = assay: In vitro MIC, Broth Dilution Method, P. mirabilis 190; details: Proteus mirabilis
P. vulgaris ATCC 6380 = assay: In vitro MIC, Broth Dilution Method, P. vulgaris ATCC 6380; details: Proteus vulgaris
Text: as §1, §2

E. cloacae 948-1 = assay: In vitro MIC, Broth Dilution Method, E. cloacae 948-1; details: Enterobacter cloacae, 9481
Text: as §1, §2

E. cloacae 2367-2 = assay: In vitro MIC, Broth Dilution Method, E. cloacae 2367-2; details: Enterobacter cloacae, 23672
Text: as §1, §2

S. aureus 95 = assay: In vitro MIC, Broth Dilution Method, S. aureus 95; details: Staphylococcus aureus
Text: as §1, §2

[1] = ATCC6380, P. vulgaris ATCC 6380, Broth Dilution Method, read-out: In vitro MIC

Structure (SMILES)	MIC (S. aureus Smith) [µg/mL]	MIC (K. pneumoniae A) [µg/mL]	MIC (E. coli 48) [µg/mL]	MIC (E. cloacae 9570A) [µg/mL]	MIC (E. cloacae 7099) [µg/mL]	MIC (P. aeruginosa Stone 130) [µg/mL]	MIC (S. marcescens SM) [µg/mL]	MIC (E. cloacae 214) [µg/mL]	MIC (P. aeruginosa 503-56) [µg/mL]	MIC (P. mirabilis 190) [µg/mL]	MIC (P. vulgaris ATCC 6380; [1]) [µg/mL]	MIC (E. cloacae 948-1) [µg/mL]	MIC (E. cloacae 2367-2) [µg/mL]	MIC (S. aureus 95) [µg/mL]	MIC (P. vulgaris ATCC 6380; ATCC6380, read-out: In vitro MIC) [µg/mL]
CCn1cc(C(=O)OCC2=C(C(=O)O)N3C(=O)[C@@H](NC(=O)COc4ccccc4)[C@H]3SC2)c(=O)c2ccc(C)nc21 [Compound A, [6R-(6alpha,7beta)]-3-[[[(1-Ethyl-1,4-dihydro-7-methyl-4-oxo-1,8-naphthydrin-3-yl)carbonyl]oxy]methyl]-8-oxo-7-[(phenoxyacetyl)amino]-5-thia-1-azabicyclo[4.2.0]oct-2-ene-2-carboxylic acid hydrate]	0.25	16	32	64	16	128	16	128	128	8	8	–	–	–	–
CCn1cc(C(=O)OCC2=C(C(=O)O)N3C(=O)[C@@H](NC(=O)COc4ccccc4)[C@H]3SC2)c(=O)c2cc3c(cc21)OCO3 [Compound B, [6R-(6alpha,7beta)]-3-[[[(5-Ethyl-5,8-dihydro-8-oxo-1,3-dioxolo[4,5-g]quinolin-7-yl)carbonyl]oxy]methyl]-8-oxo-7-[(phenoxyacetyl)amino]-5-thia-1-azabicyclo[4.2.0]oct-2-ene-2-carboxylic acid monosodium salt]	0.25	1	2	2	–	32	1	2	64	–	0.5	2	1	4	–
CCn1cc(C(=O)OCC2=C(C(=O)O)N3C(=O)[C@@H](NC(=O)/C(=N\OC)c4csc(N)n4)[C@H]3SC2)c(=O)c2ccc(C)nc21 [Compound C, [6R-(6alpha,7beta)(Z)]-7-[[(2-Amino-4-thiazolyl) (methoxyimino)acetyl]amino]-3-[[[(1-ethyl-1,4-dihydro-7-methyl-4-oxo-1,8-naphthyridin-3-yl)carbonyl]oxy]methyl]-8-oxo-5-thia-1-azabicyclo [4.2.0]oct-2-ene-2-carboxylic acid sodium salt]	2	–	0.5	2	8	128	1	8	128	0.16	0.25	8	16	8	–
CCn1cc(C(=O)OCC2=C(C(=O)O)N3C(=O)[C@@H](NC(=O)/C(=N\OC)c4csc(N)n4)[C@H]3SC2)c(=O)c2cc3c(cc21)OCO3 [Compound D, [6R-(6alpha,7beta)(Z)]-7-[[(2-Amino-4-thiazolyl) (methoxyimino)acetyl]amino]-3-[[[(5-ethyl-5,8-dihydro-8-oxo-1,3-dioxolo[4,5-g]quinolin-7-yl)carbonyl]oxy]methyl]-8-oxo-5-thia-1-azabicyclo [4.2.0]oct-2-ene-2-carboxylic acid sodium salt]	2	–	–	1	0.5	16	0.5	0.5	32	0.008	–	1	2	4	0.063
CCn1cc(C(=O)OCC2=C(C(=O)O)N3C(=O)[C@@H](NC(=O)COc4ccccc4)[C@H]3SC2)c(=O)c2cc(F)c(N3CCN(C=O)CC3)cc21 [Compound E, [6R-(6alpha,7beta)]-3-[[[[1-Ethyl-6-fluoro-1,4-dihydro-7-(4-formyl-1-piperazinyl)-4-oxo-quinolin-3-yl]-carbonyl]oxy]methyl-8-oxo-7-[(phenoxyacetyl)amino]-5-thia-1-azabicyclo[4.2.0]oct-2-ene-2-carboxylic acid sodium salt]	0.063	2	–	8	2	16	4	8	32	0.5	4	8	4	2	–
CCn1cc(C(=O)OCC2=C(C(=O)O)N3C(=O)[C@@H](NC(=O)Cc4cccs4)[C@H]3SC2)c(=O)c2cc3c(cc21)OCO3 [Compound F, [6R-(6alpha,7beta)]-3-[[[(5-Ethyl-5,8-dihydro-8-oxo-1,3-dioxolo[4,5-g]quinolin-7-yl)carbonyl]oxy]methyl]-8-oxo-7-[(2-thienylacetyl)amino]-5-thia-1-azabicyclo-[4.2.0]oct-2-ene-2-carboxylic acid sodium salt]	–	1	2	2	–	32	1	2	64	0.5	0.5	1	1	4	–
CCn1cc(C(=O)OCC2=C(C(=O)O)N3C(=O)[C@@H](NC(=O)Cc4cccs4)[C@H]3SC2)c(=O)c2cc(F)c(N3CCN(C=O)CC3)cc21 [Compound G, [6R-(6alpha,7beta)]-3-[[[[1-Ethyl-6-fluoro-1,4-dihydro-7-(4-formyl-1-piperazinyl)-4-oxoquinolin-3-yl]-carbonyl]oxy]methyl]-7-[(2-thienylacetyl)amino]-5-thia-1-azabicyclo[4.2.0]oct-2-ene-2-carboxylic acid sodium salt]	0.25	4	8	8	2	32	4	64	64	4	4	8	32	4	–
CCn1cc(C(=O)OCC2=C(C(=O)O)N3C(=O)[C@@H](NC(=O)COc4ccccc4)[C@H]3SC2)c(=O)c2cc(F)c(N3CCCC3)cc21 [Compound H, [6R-(6alpha,7beta)]-3-[[[[1-Ethyl-6-fluoro-1,4-dihydro-7-(1-pyrrolidinyl)-4-oxo-quinolin-3-yl]carbonyl]oxy]methyl]-8-oxo-7-[(phenoxyacetyl)amino]-5-thia-1-azabicyclo[4.2.0]oct-2-ene-2-carboxylic acid sodium salt]	0.25	32	32	32	2	32	32	32	64	0.5	32	32	32	0.5	–
CCn1cc(C(=O)OCC2=C(C(=O)O)N3C(=O)[C@@H](NC(=O)/C(=N\OC)c4csc(N)n4)[C@H]3SC2)c(=O)c2cc(F)c(N3CCCC3)cc21 [Compound I, [6R-(6alpha,7beta)(Z)]-7-[[(2-Amino-4-thiazolyl) (methoxyimino)acetyl]amino]-3-[[[[1-ethyl-6-fluoro-1,4-dihydro-7-(1-pyrrolidinyl)-4-oxoquinolin-3-yl]-carbonyl]oxy]methyl]-8-oxo-5-thia-1-azabicyclo[4.2.0]oct-2-ene-2-carboxylic acid sodium salt]	0.25	0.5	0.5	2	2	8	1	4	32	0.031	0.5	4	4	0.5	–

From patent publication US5147871A, “Anti-bacterial cephalosporin compounds” (Hoffmann La-Roche, Inc., priority 1991, dated 1992)
